From PMC12144510, “SIRT3 Functions as an Eraser of Histone H3K9 Lactylation to Modulate Transcription for Inhibiting the Progression of Esophageal Cancer” (Molecular & Cellular Proteomics : MCP, 2025)
“Also recorded” adds a separate entry of the source.

Columns and labels:
H3K9la = H3K9la level in cells with SIRT3 inhibitor (Western blot); assay type: cell-based, human
ESCC cell = experiment: Colony formation assay; assay type: cell-based, human
Protocol: The cells (KYSE30 cells with SIRT3 KO and overexpression) to be observed were counted, and 1000 cells/well were inoculated into the 12-well plate culture plate, and the medium was changed every 3 days. About a week after cell culture, the cells were washed twice with PBS and fixed with 1 ml 4% paraformaldehyde for 10 min. The cells were stained with crystal violet solution for 5 to 10 min, and the excess crystal violet solution was washed away with PBS. The formation of cell clones was photographed. The results were analyzed by ImageJ software (v.ImageJ2).
The cells were counted and 1000 cells were inoculated in 6-well plate plates, and the medium was changed every 3 days. After about 1 week of cell culture, the cells were washed twice with PBS and fixed with 1 ml 4% paraformaldehyde for 30 min. Dye crystal violet for 5 to 10 min and then the cells were washed with PBS. The formation of cell clones was photographed and analyzed using ImageJ software.

KYSE30 cells [1] = experiment: Cell proliferation / viability (CCK-8); assay type: cell-based, human; settings: ESCC cell (KYSE30), CCK-8, n = 8; supplemental Fig. S2G
SIRT3 = tested on: SIRT3; design: method as in PMID 26120888; settings: cited from earlier work
KYSE30 cells [2] = experiment: Cell migration (wound healing assay); assay type: cell-based, human; settings: n = 8, supplemental Fig. S2H
Protocol: The wound healing assay involved seeding cells in 6-well plates. After the cells (KYSE30 cells with SIRT3 KO and overexpression) were fused, they were scraped off with the tip of the pipette, and the floating cells were washed away with PBS. Immediately afterward, the wounds were photographed. After culture in serum-free medium for 24 h, the wounds were photographed again.

H3K9la in HEK 293T cells = experiment: H3K9la level after sodium lactate stimulation; assay type: cell-based, human; settings: 20 mM sodium lactate, 24 h, Figure S4B
Protocol: Histone was isolated from HEK 293T cells by acid extraction. In short, HEK 293T cells were treated with 20 mM sodium lactate for 24 h and harvested by centrifugation. The harvested HEK 293T cells were resuspended with lysis buffers (10 mM Tris–HCl pH 8.0, 1 mM KCl, 1.5 mM MgCl2, 1 mM DTT, 2 mM PMSF, and Roche Complete EDTA free protease inhibitor) and incubated at 4 °C for 1 h. The intact nuclei were centrifuged at 2000g at 4 °C for 10 min to form pellets. To extract histones, 0.4 M H2SO4 was added to the suspension nucleus and then rotated overnight at 4 °C. After removal of nuclear debris by centrifugation at 10,000g at 4 °C for 10 min, histone was precipitated by adding 100% trichloroacetic acid (trichloroacetic acid final concentration 33%). The precipitated histones were incubated at 4 °C for 10 min and washed with acetone twice. The dried protein particles were dissolved with ddH2O. Subsequently, 4 ∼ 6 μg histone was incubated with 10 μM SIRT3 in 100 μl PBS supplemented by 5 mM NAD^+ at 37 °C for 5 h. The lactylation levels at histone were detected by Western blot.

SMILES | delactylation of SIRT3 with inhibitor (H3K9la; Figure S2F) | level of H3K9la in cells (H3K9la; compared with dimethyl sulfoxide, supplemental Fig. S2F) | colony formation (ESCC cell) | cell proliferation (KYSE30 cells [1]) | SIRT3 inhibition selectivity (SIRT3) | cell migration ability (KYSE30 cells [2]) | H3K9la level (H3K9la in HEK 293T cells)
c1cncc(-c2cn[nH]n2)c1 [3-TYP] | decreasing delactylation | increased H3K9la levels; also recorded: significantly increased | Increasing efficiencies of proliferation and colony formation | significantly increased; also recorded: Increasing efficiencies of proliferation | selective SIRT3 inhibitor | significantly increased | –
CC(O)C(=O)[O-].[Na+] (stereo not shown) [sodium lactate] | – | – | – | – | – | – | increased
